Key:
Adenosine receptor A1 [1] = molecular target: T1, Adenosine receptor A1 (Rattus norvegicus, UniProt P25099); test: Evaluated for the binding affinity towards the Adenosine A1 receptor in cerebral cortices of Sprague-Dawley male rats using [3H]CHA as radioligand.
T1 sequence (P25099 whole entry): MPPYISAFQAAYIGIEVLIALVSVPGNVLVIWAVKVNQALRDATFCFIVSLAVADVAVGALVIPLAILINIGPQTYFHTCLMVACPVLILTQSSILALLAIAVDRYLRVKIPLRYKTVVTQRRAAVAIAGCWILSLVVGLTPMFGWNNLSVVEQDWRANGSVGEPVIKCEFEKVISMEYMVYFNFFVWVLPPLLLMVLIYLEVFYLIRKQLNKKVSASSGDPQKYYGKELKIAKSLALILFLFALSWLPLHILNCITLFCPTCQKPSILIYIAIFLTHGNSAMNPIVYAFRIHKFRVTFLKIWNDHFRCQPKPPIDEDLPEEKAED

Adenosine receptor A1 [2] = molecular target: T1, Adenosine receptor A1; test: Binding affinity towards the adenosine A1 receptor in cerebral cortices of Sprague-Dawley male rats using [3H]CHA as radioligand.
Adenosine A2 receptor [3] = molecular target: T2, Adenosine A2 receptor (Rattus norvegicus, UniProt P29276+P30543)
Rattus norvegicus [4] = species on record: Rattus norvegicus; test: Minimal effective dose in an rat anti-immobility effect using behavioral despair test; type: functional; settings: read-out: MED
Phosphodiesterase 1 = Phosphodiesterase 1 (Rattus norvegicus, UniProt Q63421+Q9EPR9+Q01066); test: Evaluated for Ca++ dependent phosphodiesterase activity.; type: functional
Rattus norvegicus [5] = species on record: Rattus norvegicus; test: Evaluated for Ca++ independent phosphodiesterase activity.; type: functional
[6] = molecular target: Adenosine receptor A1 (Rattus norvegicus) (UniProt P25099); test: Binding affinity for Adenosine A1 receptor in cerebral cortices of Sprague-Dawley male rats using [3H]CHA
Adenosine receptor A1 [7] = molecular target: T1, Adenosine receptor A1; test: Binding affinity for Adenosine A1 receptor in cerebral cortices of Sprague-Dawley male rats using [3H]-CHA
Adenosine A2 receptor [8] = molecular target: T2, Adenosine A2 receptor; test: Binding affinity for Adenosine A2 receptor in corpora striata of rats using [3H]NECA; type: protein assay
Adenosine receptor A1 [9] = molecular target: T1, Adenosine receptor A1

| Compound | IC50 (Adenosine receptor A1 [1]) [µM] | IC50 (Adenosine receptor A1 [2]) [µM] | IC50 (Adenosine A2 receptor [3]) [µM] | minimal effective dose (Rattus norvegicus [4]) [mg/kg] | IC50 (Phosphodiesterase 1) | IC50 (Rattus norvegicus [5]) [µM] | IC50 [6] [µM] | IC50 (Adenosine receptor A1 [7]) [µM] | Ki (Adenosine A2 receptor [8]) [µM] | Ki (Adenosine receptor A1 [9]) [µM] |
| --- | --- | --- | --- | --- | --- | --- | --- | --- | --- | --- |
| CC(C)Nc1ncnc2c1ncn2[C@@H]1O[C@H](CO)[C@@H](O)[C@H]1O | 3.7 |  |  |  |  |  |  |  |  |  |
| CC(C)Nc1nc2ccccc2n2cnnc12 |  | 4.1 | 17 | 3.2 |  |  |  |  |  |  |
| CC(C)Nc1nc2ccc(Cl)cc2n2c(-c3ccccc3)nnc12 |  | 3.2 | > 100 | < 32 | > 10 µM | > 10 |  |  |  |  |
| Nc1nc2ccc(Cl)cc2n2c(-c3ccccc3)nnc12 |  | 0.27 | 0.021 | > 32 |  |  |  |  |  |  |
| CCc1nnc2c(N(C)C)nc3ccccc3n12 |  |  |  | ≤ 3.2 |  |  | 12 |  |  |  |
| CCN(CC)c1nc2ccc(Cl)cc2n2c(C(F)(F)F)nnc12 |  | > 100 | > 100 | ≤ 32 |  |  |  |  |  |  |
| CCc1nnc2c(NC(C)C)nc3cc(F)ccc3n12 |  | 0.44 | 48 | ≥ 32 |  |  |  |  |  |  |
| Fc1ccc2nc(NC3CCCCC3)c3nnc(C(F)(F)F)n3c2c1 |  | 0.032 | 60 | > 32 | > 10 µM | 6 |  |  |  |  |
| Nc1nc2ccc(Cl)cc2n2c(C(F)(F)F)nnc12 |  | 0.065 | 0.044 | 3.2 | > 10 µM | 2 |  |  |  |  |
| CCc1nnc2c(NC(C)C)nc3c(Cl)cccc3n12 |  | 6.8 | > 100 | ≤ 32 | >> 10 uM | > 10 |  |  |  |  |
| CC(C)Nc1nc2ccc(F)cc2n2cnnc12 |  | 0.68 | 6.9 | ≤ 3.2 | > 100 µM | 4.5 |  |  |  |  |
| CCCN(CCC)c1nc2ccc(F)cc2n2c(C(F)(F)F)nnc12 |  |  |  | > 32 | >> 10 uM | > 10 |  |  |  |  |
| CCc1nnc2c(N(CC)CC)nc3ccccc3n12 |  | 7.4 |  | 3.2 | 0.1 µM | 3.7 |  |  |  |  |
| CCc1nnc2c(NC(C)C)nc3cc(Cl)c(Cl)cc3n12 |  | 0.11 | 3.2 | ≤ 32 |  |  |  |  |  |  |
| Nc1nc2ccc(F)cc2n2c(C(F)(F)F)nnc12 |  | 0.29 | 0.1 | 1 |  |  |  |  |  |  |
| CC(C)Nc1nc2ccc(Cl)cc2n2c(C(F)(F)F)nnc12 |  | 0.024 | 2.3 | ≤ 3.2 | 1 µM | 1 |  |  |  |  |
| CCc1nnc2c(N)nc3cc(Cl)c(Cl)cc3n12 |  | 0.11 | 0.023 | 3.2 |  |  |  |  |  |  |
| COc1ccc2c(c1)nc(N)c1nncn12 |  | 1.4 | 0.1 | 3.2 | >> 10 uM | > 10 |  |  |  |  |
| CC(C)Nc1nc2ccc(Cl)cc2n2c(C(F)(F)C(F)(F)F)nnc12 |  | 0.024 | 3.1 | 32 |  |  |  |  |  |  |
| CCNc1nc2cc(Cl)ccc2n2c(CC)nnc12 |  |  |  | 3.2 | > 10 µM | 0.2 |  |  |  |  |
| CCc1nnc2c(N)nc3cc(OC)ccc3n12 |  | 0.14 | 0.036 | > 32 |  |  |  |  |  |  |
| CC(C)Nc1nc2ccc(F)cc2n2c(C(F)(F)F)nnc12 |  | 0.057 | 3.9 | ≤ 3.2 | 24 µM | 0.37 |  |  |  |  |
| CCc1nnc2c(NC(C)C)nc3ccccc3n12 |  | 0.66 | 6.4 | 10 | 3 µM | 0.3 |  |  |  |  |
| CCN(CC)c1nc2ccccc2n2cnnc12 |  | 27 | 42 | 10 | 1.2 µM | 3 |  |  |  |  |

| Compound | IC50 (Adenosine receptor A1 [1]) [µM] | IC50 (Adenosine receptor A1 [2]) [µM] | IC50 (Adenosine A2 receptor [3]) [µM] | minimal effective dose (Rattus norvegicus [4]) [mg/kg] | IC50 (Phosphodiesterase 1) | IC50 (Rattus norvegicus [5]) [µM] | IC50 [6] [µM] | IC50 (Adenosine receptor A1 [7]) [µM] | Ki (Adenosine A2 receptor [8]) [µM] | Ki (Adenosine receptor A1 [9]) [µM] |
| --- | --- | --- | --- | --- | --- | --- | --- | --- | --- | --- |
| CC(C)Nc1nc2ccc(Cl)cc2n2cnnc12 |  | 0.37 | 3.3 | 3.2 |  |  |  |  |  |  |
| Clc1ccc2nc(N3CCNCC3)c3nnc(-c4ccccc4)n3c2c1 |  |  |  | > 32 | >> 10 uM | 10 |  |  |  |  |
| CCc1nnc2c(N)nc3cc(F)ccc3n12 |  | 0.58 | 0.17 | 3.2 | >> 10 uM | 40 |  |  |  |  |
| CCc1nnc2c(N)nc3ccc(Cl)cc3n12 |  | 0.11 | 0.028 | ≤ 3.2 |  |  |  |  |  |  |
| CCc1nnc2c(N)nc3ccccc3n12 |  | 0.43 | 0.062 | 3.2 | 2 µM | 12 |  |  |  |  |
| CCc1nnc2c(NC(C)C)nc3ccc(Cl)cc3n12 |  | 0.06 | 1.7 | ≤ 3.2 | 2 µM | 0.5 |  |  |  |  |
| CC(C)Nc1nc2cc(F)ccc2n2cnnc12 |  | 4.5 | 13 | > 32 | > 100 µM | 6 |  |  |  |  |
| CCc1nnc2c(NC3CCCC3)nc3ccc(Cl)cc3n12 |  | 0.02 | 0.89 | > 32 |  |  |  |  |  |  |
| FC(F)(F)c1nnc2c(NC3CCCC3)nc3ccc(Cl)cc3n12 |  | 0.0055 | 2.1 | > 32 |  |  |  |  |  |  |
| CCc1nnc2c(NC(C)C)nc3cc(F)c(F)cc3n12 |  | 0.28 | 6.4 | ≤ 32 |  |  |  |  |  |  |
| Nc1nc2ccc(F)cc2n2cnnc12 |  | 2.9 | 1 | ≤ 32 | > 10 µM | 4 |  |  |  |  |
| CCc1nnc2c(N[C@@H](C)Cc3ccccc3)nc3ccc(Cl)cc3n12 |  | 0.68 | > 100 | > 32 |  |  |  |  |  |  |
| Nc1nc2ccc(Cl)cc2n2c(-c3ccc(Cl)cc3)nnc12 |  |  | 0.033 |  |  |  |  | 0.51 |  |  |
| CCNc1nc2ccccc2n2cnnc12 |  | 29 | 110 | 3.2 |  |  |  |  |  |  |
| c1ccc2c(c1)nc(N1CCNCC1)c1nncn12 |  | > 10 |  | > 32 | 3 µM | 7 |  |  |  |  |
| CCc1nnc2c(Nc3ccccc3)nc3ccc(Cl)cc3n12 |  | 0.38 | > 100 | > 32 |  |  |  |  |  |  |
| CCNc1nc2ccccc2n2c(CC)nnc12 |  | 1.8 | 9.5 | 3.2 | 20 µM | 2.5 |  |  |  |  |
| FC(F)(F)c1nnc2c(NC3CCCCC3)nc3ccc(Cl)cc3n12 |  | 0.028 | > 100 | > 32 | > 10 µM | > 10 |  |  |  |  |
| COc1nnc2c(NC(C)C)nc3ccc(F)cc3n12 |  | 0.16 | 6.5 | ≤ 32 |  |  |  |  |  |  |
| Cn1c(=O)c2c(ncn2C)n(C)c1=O [CAFFEINE] |  |  |  | 3.2 | 70 µM | 170 |  |  |  |  |
| CC(C)Cn1c(=O)n(C)c(=O)c2nc[nH]c21 [ISOBUTYLMETHYLXANTHINE] |  | 7 | 13 | > 32 | 0.1 µM | 3.5 |  |  |  |  |
| OC[C@H]1O[C@@H](n2cnc3c(Nc4ccccc4)ncnc32)[C@H](O)[C@@H]1O [N6-PHENYLADENOSINE] | 0.0065 |  |  |  |  |  |  |  | 50 | 0.003 |
| COc1ccc(C2CNC(=O)C2)cc1OC1CCCC1 (configuration not stated) [ROLIPRAM] |  | > 100 | > 100 | > 32 | > 100 µM | 0.25 |  |  |  |  |
